Data: US4223039A, “Therapeutically useful N-phenylaniline derivatives” (priority 1978, dated 1980)
Structures can show the parent of a compound that is named as a salt.

Columns and labels:
[1] = tested on: painful syndrome provoked in mice by phenylbenzoquinone; assay: animal or person; assay type: in vivo; settings: for Therapeutic Index LD 50/ED 50 / therapeutic index (in words): mice; for Therapeutic Index LD 50/ED 50: LD 50 (oral)/ED 50 (phenylbenzoquinone test); for therapeutic index (in words): LD 50/ED 50
Description: There is used the phenylbenzoquinone test according to a technique adapted from that of Siegmund (E), Proc. Soc. Exp. Biol. Med. 1957, 95, No. 4, 729-731.
It is attempted to antagonise, by previous administration (30 minutes before) of the test compounds, the painful syndrome provoked in mice (groups of 10 animals) by interperitoneal injection of phenylbenzoquinone and characterised by intermittent contractions of the abdomen, periodic torsions of the trunk and extension of the rear paws. The number of symtoms is counted for 20 minutes after administration of the phenylbenzoquinone to the control and treated groups and the percentage protection relative to the control group calculated.
For the most interesting compounds, studied at several doses chosen in geometric progression of ratio 2, the effective doses 50% (ED 50) which reduce by 50% the effects provoked by phenylbenzoquinone are determined. These ED 50s are sorted according to their limits of confidence calculated for a probability p=0.05 according to the method of Litchfield (J. T.) and Wilcoxon (F. A.), J. Pharmacol. Exp. Ther. 1949, 96, 99-113.
Calculation of the therapeutic index (LD 50/ED 50) enables appreciation of the interest of the compounds.

[2] = Acute toxicity in mice after oral administration; settings: mouse, in vivo, suspended in 10% gum arabic, survivors checked at 15 days
Description: The compounds have been administered at increasing doses (in geometric progression) to groups of five .female. SWISS, EOPS, NMRI/Han mice originating from the breeding of EVIC CEBA and of mean weight 25 g.
For oral administration, they are suspended in a 10% gum arabic solution.
The LD 50s are calculated by the method of Behrens (B) and Karber (C), (Arch. Exp. Path. Pharmakol. 1935, 177, 379-388).
The number of animals surviving in the different groups is finally checked 15 days after administration of the compounds.

[3] = Solubility in distilled water; assay type: physicochemical
[4] = Mus musculus, read-out: Percentage Protection

`CC(Nc1ccc(C(=O)c2ccccc2)cc1)C(=O)O` (centres unmarked) [LJ 854] showed an ED50 ([1]; Mus musculus) of 32 mg/kg, an inhibition in vivo at 5.8 mg/kg [1, 4] of 6% and an inhibition in vivo at 11.75 mg/kg [1, 4] of 11%. The inhibition in vivo at 23.5 mg/kg [1, 4] was 25%, the inhibition in vivo at 47 mg/kg [1, 4] was 84% and the inhibition in vivo at 93.75 mg/kg [1, 4] was 90%. For the same compound, the “Therapeutic Index LD 50/ED 50” value [1] was 58 and the LD50 at 360 h [2] was 1880 mg/kg.
`Cc1c(NC(C)C(=O)O)cccc1C(=O)c1ccc(Cl)cc1` (centres unmarked) [LJ 857] showed an inhibition in vivo at 62.5 mg/kg [1, 4] of 64% and an LD50 at 360 h [2] of 1250 mg/kg.
With `CC(Nc1cccc(C(=O)c2cccs2)c1)C(=O)O` (centres unmarked) [LJ 859] the inhibition in vivo at 125 mg/kg [1, 4] was 77% and the LD50 at 360 h [2] was 2500 mg/kg.
Compound `Cc1c(NCC(=O)O)cccc1C(=O)c1ccccc1` [LJ 861] has an ED50 ([1]; Mus musculus) of 65 mg/kg, an inhibition in vivo at 20 mg/kg [1, 4] of 24% and an inhibition in vivo at 40 mg/kg [1, 4] of 36%. For the same compound, the inhibition in vivo at 80 mg/kg [1, 4] was 52%, the inhibition in vivo at 160 mg/kg [1, 4] was 90% and the inhibition in vivo at 320 mg/kg [1, 4] was 96%. For the same compound, the “Therapeutic Index LD 50/ED 50” value [1] was 20 and the LD50 at 360 h [2] was 1300 mg/kg.
Work on `CC(Nc1ccc(C(=O)c2cccs2)cc1)C(=O)O` (centres unmarked) [LJ 858] yielded an inhibition in vivo at 93.75 mg/kg [1, 4] of 78% and an LD50 at 360 h [2] of 1880 mg/kg.
With `O=C(O)CNc1cccc(C(=O)c2ccccc2)c1` [LJ 850] the inhibition in vivo at 33.75 mg/kg [1, 4] was 28% and the LD50 at 360 h [2] was 675 mg/kg.
With `C[C@@H](C(=O)O)N(C(=O)c1ccc(Cl)cc1)c1cccc(C(=O)c2ccccc2)c1` [LJ 863, N-(3-Benzoylphenyl)-N-(4-chlorobenzoyl)-alanine] the inhibition in vivo at 320 mg/kg [1, 4] was 45%.
With `CC(Nc1cccc(C(=O)c2ccccc2)c1)C(=O)O` (centres unmarked) [LJ 843, The lysine salt of N-(3-benzoylphenyl)alanine monohydrate] the “solubility in distilled water” value [3] was “very soluble in distilled water”, the ED50 ([1]; Mus musculus) was 25 mg/kg and the inhibition in vivo at 11.75 mg/kg [1, 4] was 30%. For the same compound, the inhibition in vivo at 23.5 mg/kg [1, 4] was 38%, the inhibition in vivo at 47 mg/kg [1, 4] was 66% and the inhibition in vivo at 93.75 mg/kg [1, 4] was 84%. The inhibition in vivo at 187.5 mg/kg [1, 4] was 91%, the “Therapeutic Index LD 50/ED 50” value [1] was 150 and the “therapeutic index (in words)” value [1] was “very favourable therapeutic index”. It also gave an LD50 at 360 h [2] of 3750 mg/kg.
For `CN(CC(=O)O)c1cccc(C(=O)c2ccccc2)c1` [LJ 862, N-(3-Benzoylphenyl)-N-methyl-glycine], the ED50 ([1]; Mus musculus) was 85 mg/kg, the inhibition in vivo at 20 mg/kg [1, 4] was 6% and the inhibition in vivo at 40 mg/kg [1, 4] was 24%. For the same compound, the inhibition in vivo at 80 mg/kg [1, 4] was 49%, the inhibition in vivo at 160 mg/kg [1, 4] was 78% and the inhibition in vivo at 320 mg/kg [1, 4] was 89%.
Work on `C[C@H](Nc1cccc(C(=O)c2ccccc2)c1)C(=O)O` [LJ 874, N-(3-Benzoylphenyl)-alanine] yielded an ED50 ([1]; Mus musculus) of 35 mg/kg, an inhibition in vivo at 7.5 mg/kg [1, 4] of 3% and an inhibition in vivo at 15 mg/kg [1, 4] of 20%. The inhibition in vivo at 30 mg/kg [1, 4] was 48%, the inhibition in vivo at 60 mg/kg [1, 4] was 61% and the inhibition in vivo at 120 mg/kg [1, 4] was 92%. The “Therapeutic Index LD 50/ED 50” value [1] was 71, the “therapeutic index (in words)” value [1] was “very favourable therapeutic index” and the LD50 at 360 h [2] was 2500 mg/kg.
With `O=C(c1ccccc1)c1cccc(NC(C(=O)O)c2ccccc2)c1` (centres unmarked) [LJ 864] the inhibition in vivo at 40 mg/kg [1, 4] was 7%, the inhibition in vivo at 80 mg/kg [1, 4] was 22% and the inhibition in vivo at 160 mg/kg [1, 4] was 31%. For the same compound, the inhibition in vivo at 320 mg/kg [1, 4] was 59%.
Compound `CC(Nc1cccc(C(=O)c2ccc(Cl)cc2)c1)C(=O)O` (centres unmarked) [LJ 845] has an inhibition in vivo at 87.5 mg/kg [1, 4] of 75% and an LD50 at 360 h [2] of 1750 mg/kg.
Work on `Cc1ccc(C(=O)c2cccc(NC(C)C(=O)O)c2)cc1` (centres unmarked) [LJ 867] yielded an ED50 ([1]; Mus musculus) of 32 mg/kg, an inhibition in vivo at 8.2 mg/kg [1, 4] of 6% and an inhibition in vivo at 16.4 mg/kg [1, 4] of 32%. It also gave an inhibition in vivo at 32.75 mg/kg [1, 4] of 52%, an inhibition in vivo at 65.5 mg/kg [1, 4] of 70% and an inhibition in vivo at 131 mg/kg [1, 4] of 92%. The inhibition in vivo at 262 mg/kg [1, 4] was 97%, the “Therapeutic Index LD 50/ED 50” value [1] was 82 and the “therapeutic index (in words)” value [1] was “very favourable therapeutic index”. For the same compound, the LD50 at 360 h [2] was 2620 mg/kg.
Work on `CC(=O)Oc1ccccc1C(=O)O` [Aspirin, reference compound] yielded an ED50 ([1]; Mus musculus) of 60 mg/kg, an inhibition in vivo at 9.4 mg/kg [1, 4] of 4% and an inhibition in vivo at 18.75 mg/kg [1, 4] of 20%. For the same compound, the inhibition in vivo at 37.5 mg/kg [1, 4] was 31%, the inhibition in vivo at 75 mg/kg [1, 4] was 56% and the inhibition in vivo at 150 mg/kg [1, 4] was 82%. The inhibition in vivo at 300 mg/kg [1, 4] was 95%, the “Therapeutic Index LD 50/ED 50” value [1] was 25 and the LD50 at 360 h [2] was 1500 mg/kg.
Compound `CC(Nc1ccccc1C(=O)c1ccccc1)C(=O)O` (centres unmarked) [LJ 855] has an ED50 ([1]; Mus musculus) of 16 mg/kg, an inhibition in vivo at 3.1 mg/kg [1, 4] of 10% and an inhibition in vivo at 6.25 mg/kg [1, 4] of 14%. It also gave an inhibition in vivo at 12.5 mg/kg [1, 4] of 37%, an inhibition in vivo at 25 mg/kg [1, 4] of 73% and an inhibition in vivo at 50 mg/kg [1, 4] of 92%. For the same compound, the “Therapeutic Index LD 50/ED 50” value [1] was 62 and the LD50 at 360 h [2] was 1000 mg/kg.
In the case of `Cc1c(NCC(=O)O)cccc1C(=O)c1ccc(Cl)cc1` [LJ 846, N-[3-(4-Chlorobenzoyl)-2-methyl-phenyl]glycine], the ED50 ([1]; Mus musculus) is reported as 18 mg/kg, the inhibition in vivo at 5 mg/kg [1, 4] is reported as 6% and the inhibition in vivo at 10 mg/kg [1, 4] is reported as 40%. For the same compound, the inhibition in vivo at 20 mg/kg [1, 4] was 48%, the inhibition in vivo at 40 mg/kg [1, 4] was 75% and the inhibition in vivo at 80 mg/kg [1, 4] was 90%. The “Therapeutic Index LD 50/ED 50” value [1] was 89, the “therapeutic index (in words)” value [1] was “very favourable therapeutic index” and the LD50 at 360 h [2] was 1600 mg/kg.
For `CC(Nc1ccc(Cl)c(C(=O)c2ccccc2)c1)C(=O)O` (centres unmarked) [LJ 868], the ED50 ([1]; Mus musculus) was over 180 mg/kg, the inhibition in vivo at 180 mg/kg [1, 4] was 32% and the “Therapeutic Index LD 50/ED 50” value [1] was under 10. The LD50 at 360 h [2] was 1800 mg/kg.
Compound `Cc1ccc(C(=O)c2ccccc2)cc1NCC(=O)O` [LJ 871] has an ED50 ([1]; Mus musculus) of 120 mg/kg, an inhibition in vivo at 20 mg/kg [1, 4] of 3% and an inhibition in vivo at 40 mg/kg [1, 4] of 22%. For the same compound, the inhibition in vivo at 80 mg/kg [1, 4] was 34%, the inhibition in vivo at 160 mg/kg [1, 4] was 59% and the inhibition in vivo at 320 mg/kg [1, 4] was 60%.
Compound `Cc1ccc(C(=O)c2ccccc2)cc1NC(C)C(=O)O` (centres unmarked) [LJ 869] has an ED50 ([1]; Mus musculus) of 28 mg/kg, an inhibition in vivo at 8.1 mg/kg [1, 4] of 12% and an inhibition in vivo at 16.25 mg/kg [1, 4] of 36%. The inhibition in vivo at 32.5 mg/kg [1, 4] was 51%, the inhibition in vivo at 65 mg/kg [1, 4] was 82% and the inhibition in vivo at 130 mg/kg [1, 4] was 96%. The “Therapeutic Index LD 50/ED 50” value [1] was 46 and the LD50 at 360 h [2] was 1300 mg/kg.
